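A five-concentration, 48-hour dose response in 96-well plates underlies each endpoint, interpolated linearly between surrounding concentrations. TGI is the concentration that stops growth completely.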
Columns and labels:
Test in all cases: growth of human tumour cells (NCI), 48 h
K-562 leukemia = tested on: K-562 leukemia
NCI-H460 lung = tested on: NCI-H460 lung
LOX IMVI melanoma = tested on: LOX IMVI melanoma
OVCAR-4 ovarian = tested on: OVCAR-4 ovarian
EKVX NSCLC = tested on: EKVX NSCLC
HCT-116 colon = tested on: HCT-116 colon
OVCAR-8 ovarian = tested on: OVCAR-8 ovarian
786-0 renal = tested on: 786-0 renal
SNB-19 CNS = tested on: SNB-19 CNS
SF-539 CNS = tested on: SF-539 CNS
TK-10 renal = tested on: TK-10 renal
CCRF-CEM leukemia = tested on: CCRF-CEM leukemia
RXF 393 renal = tested on: RXF 393 renal
HOP-18 NSCLC = tested on: HOP-18 NSCLC
SNB-78 CNS = tested on: SNB-78 CNS
NCI-H23 lung = tested on: NCI-H23 lung
KM20L2 colon = tested on: KM20L2 colon
HT29 colon = tested on: HT29 colon
SN12C renal = tested on: SN12C renal
CAKI-1 renal = tested on: CAKI-1 renal
SK-MEL-2 melanoma = tested on: SK-MEL-2 melanoma
COLO 205 colon = tested on: COLO 205 colon
SF-295 CNS = tested on: SF-295 CNS
SK-MEL-5 melanoma = tested on: SK-MEL-5 melanoma
NCI-H226 lung = tested on: NCI-H226 lung
MALME-3M melanoma = tested on: MALME-3M melanoma
HCT-15 colon = tested on: HCT-15 colon
U251 CNS = tested on: U251 CNS
OVCAR-3 ovarian = tested on: OVCAR-3 ovarian
DMS 273 small cell lung = tested on: DMS 273 small cell lung
UACC-62 melanoma = tested on: UACC-62 melanoma
A549 NSCLC = tested on: A549 NSCLC
DLD-1 colon = tested on: DLD-1 colon
MOLT-4 leukemia = tested on: MOLT-4 leukemia
XF 498 CNS = tested on: XF 498 CNS
HL-60(TB) leukemia = tested on: HL-60(TB) leukemia
UACC-257 melanoma = tested on: UACC-257 melanoma
KM12 colon = tested on: KM12 colon
HOP-92 NSCLC = tested on: HOP-92 NSCLC
SNB-75 CNS = tested on: SNB-75 CNS
SW-620 colon = tested on: SW-620 colon
M14 melanoma = tested on: M14 melanoma
SF-268 CNS = tested on: SF-268 CNS
A498 renal = tested on: A498 renal
DMS 114 small cell lung = tested on: DMS 114 small cell lung
SK-OV-3 ovarian = tested on: SK-OV-3 ovarian
LXFL 529 NSCLC = tested on: LXFL 529 NSCLC
SR leukemia = tested on: SR leukemia
IGROV1 ovarian = tested on: IGROV1 ovarian
HOP-62 NSCLC = tested on: HOP-62 NSCLC
UO-31 renal = tested on: UO-31 renal
M19-MEL melanoma = tested on: M19-MEL melanoma
NCI-H522 lung = tested on: NCI-H522 lung
OVCAR-5 ovarian = tested on: OVCAR-5 ovarian
RPMI-8226 leukemia = tested on: RPMI-8226 leukemia
HCC-2998 colon = tested on: HCC-2998 colon
ACHN renal = tested on: ACHN renal
SK-MEL-28 melanoma = tested on: SK-MEL-28 melanoma

CCc1ccc(Nc2cc(=O)[nH]c(=S)n2C)cc1
TGI (K-562 leukemia): > 100 µM | TGI (NCI-H460 lung): > 100 µM | TGI (LOX IMVI melanoma): > 100 µM | TGI (OVCAR-4 ovarian): > 100 µM | TGI (EKVX NSCLC): > 100 µM | TGI (HCT-116 colon): > 100 µM | TGI (OVCAR-8 ovarian): > 100 µM | TGI (786-0 renal): > 100 µM | TGI (SNB-19 CNS): > 100 µM | TGI (SF-539 CNS): > 100 µM | TGI (TK-10 renal): > 100 µM | TGI (CCRF-CEM leukemia): > 100 µM | TGI (RXF 393 renal): > 100 µM | TGI (HOP-18 NSCLC): > 100 µM | TGI (SNB-78 CNS): > 100 µM | TGI (NCI-H23 lung): > 100 µM | TGI (KM20L2 colon): > 100 µM | TGI (HT29 colon): > 100 µM | TGI (SN12C renal): > 100 µM | TGI (CAKI-1 renal): > 100 µM | TGI (SK-MEL-2 melanoma): > 100 µM | TGI (COLO 205 colon): > 100 µM | TGI (SF-295 CNS): > 100 µM | TGI (SK-MEL-5 melanoma): > 100 µM | TGI (NCI-H226 lung): > 100 µM | TGI (MALME-3M melanoma): > 100 µM | TGI (HCT-15 colon): > 100 µM | TGI (U251 CNS): > 100 µM | TGI (OVCAR-3 ovarian): > 100 µM | TGI (DMS 273 small cell lung): > 100 µM | TGI (UACC-62 melanoma): > 100 µM | TGI (A549 NSCLC): > 100 µM | TGI (DLD-1 colon): > 100 µM | TGI (MOLT-4 leukemia): > 100 µM | TGI (XF 498 CNS): > 100 µM | TGI (HL-60(TB) leukemia): > 100 µM | TGI (UACC-257 melanoma): > 100 µM | TGI (KM12 colon): > 100 µM | TGI (HOP-92 NSCLC): > 100 µM | TGI (SNB-75 CNS): > 100 µM | TGI (SW-620 colon): > 100 µM | TGI (M14 melanoma): > 100 µM | TGI (SF-268 CNS): > 100 µM | TGI (A498 renal): > 100 µM | TGI (DMS 114 small cell lung): > 100 µM | TGI (SK-OV-3 ovarian): > 100 µM | TGI (LXFL 529 NSCLC): > 100 µM | TGI (SR leukemia): > 100 µM | TGI (IGROV1 ovarian): > 100 µM | TGI (HOP-62 NSCLC): > 100 µM | TGI (UO-31 renal): > 100 µM | TGI (M19-MEL melanoma): > 100 µM | TGI (NCI-H522 lung): > 100 µM | TGI (OVCAR-5 ovarian): > 100 µM | TGI (RPMI-8226 leukemia): > 100 µM

O=C(Nc1nc2ccccc2n1Cc1ccc(Cl)cc1)NC12CC3CC(CC(C3)C1)C2
TGI (K-562 leukemia): > 100 µM | TGI (NCI-H460 lung): > 100 µM | TGI (LOX IMVI melanoma): > 100 µM | TGI (OVCAR-4 ovarian): 28.9 µM | TGI (EKVX NSCLC): > 100 µM | TGI (HCT-116 colon): 64 µM | TGI (HCC-2998 colon): > 100 µM | TGI (786-0 renal): 58.4 µM | TGI (SNB-19 CNS): 53.7 µM | TGI (SF-539 CNS): 53.4 µM | TGI (TK-10 renal): > 100 µM | TGI (CCRF-CEM leukemia): > 100 µM | TGI (ACHN renal): > 100 µM | TGI (RXF 393 renal): 64.5 µM | TGI (HOP-18 NSCLC): 85.4 µM | TGI (NCI-H23 lung): 58.4 µM | TGI (KM20L2 colon): > 100 µM | TGI (HT29 colon): > 100 µM | TGI (SN12C renal): > 100 µM | TGI (CAKI-1 renal): > 100 µM | TGI (SK-MEL-2 melanoma): 87.7 µM | TGI (COLO 205 colon): > 100 µM | TGI (SF-295 CNS): 27.3 µM | TGI (SK-MEL-5 melanoma): > 100 µM | TGI (NCI-H226 lung): 70.7 µM | TGI (MALME-3M melanoma): 62 µM | TGI (HCT-15 colon): > 100 µM | TGI (U251 CNS): 46.9 µM | TGI (OVCAR-3 ovarian): 60.7 µM | TGI (DMS 273 small cell lung): 34.7 µM | TGI (UACC-62 melanoma): 38 µM | TGI (A549 NSCLC): 66.5 µM | TGI (DLD-1 colon): > 100 µM | TGI (MOLT-4 leukemia): > 100 µM | TGI (XF 498 CNS): 53.2 µM | TGI (HL-60(TB) leukemia): > 100 µM | TGI (UACC-257 melanoma): > 100 µM | TGI (SK-MEL-28 melanoma): 68.3 µM | TGI (KM12 colon): > 100 µM | TGI (HOP-92 NSCLC): 56.8 µM | TGI (SNB-75 CNS): 22.9 µM | TGI (SW-620 colon): > 100 µM | TGI (M14 melanoma): > 100 µM | TGI (SF-268 CNS): 23.8 µM | TGI (DMS 114 small cell lung): 90.8 µM | TGI (SK-OV-3 ovarian): 39.2 µM | TGI (LXFL 529 NSCLC): 72 µM | TGI (SR leukemia): > 100 µM | TGI (IGROV1 ovarian): > 100 µM | TGI (HOP-62 NSCLC): 37.3 µM | TGI (UO-31 renal): > 100 µM | TGI (M19-MEL melanoma): > 100 µM | TGI (NCI-H522 lung): 42.7 µM | TGI (OVCAR-5 ovarian): > 100 µM | TGI (RPMI-8226 leukemia): > 100 µM

From PubChem BioAssay (NCI)
